# Laboratory results from patent US10045983B2, “Heteroaryl pyridone and aza-pyrodine compounds” (Genentech, Inc., priority 2011, dated 2018).
# Experiment: CD69 Whole Blood Assay (CD69 Hu Blood FACS)
# Assay type: cell-based, human
# Conditions: Lymphocyte; human whole blood, anti-IgM activated B lymphocytes, FACS; IC70; Table 2 (unit inferred); read-out: CD69 Hu Blood FACS (IC70)
# In short: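 Compounds tested for blocking B-cell CD69 induction by flow cytometry in human whole blood, with activation via anti-human IgM goat F(ab′)2 crosslinking of surface IgM.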
row,Structure (SMILES),IC70 [µM]
1,"CN1CC(c2ccc(Nc3cc(-c4ccnc(N5CCn6c(cc7c6CCCC7)C5=O)c4CO)cn(C)c3=O)nc2)C1 [Example 239, 2-[3-(hydroxymethyl)-4-[1-methyl-5-[[5-(1-methylazetidin-3-yl)-2-pyridyl]amino]-6-oxo-3-pyridyl]-2-pyridyl]-3,4,6,7,8,9-hexahydropyrazino[1,2-a]indol-1-one]",0.153
2,"CN1CC(c2ccc(Nc3cc(-c4ccnc(N5CCn6c(cc7c6CC(C)(C)C7)C5=O)c4CO)cn(C)c3=O)nc2)C1 [Example 240, 3-[3-(hydroxymethyl)-4-[1-methyl-5-[[5-(1-methylazetidin-3-yl)-2-pyridyl]amino]-6-oxo-3-pyridyl]-2-pyridyl]-7,7-dimethyl-1,2,6,8-tetrahydrocyclopenta[3,4]pyrrolo[3,5-b]pyrazin-4-one]",0.0229
3,"CN1CCn2nc(Nc3cc(-c4ccnc(N5CCc6c(c(F)c7n6CCCC7)C5=O)c4CO)cn(C)c3=O)cc2C1 [Example 241, 10-fluoro-2-[3-(hydroxymethyl)-4-[1-methyl-5-[(5-methyl-6,7-dihydro-4H-pyrazolo[1,5-a]pyrazin-2-yl)amino]-6-oxo-3-pyridyl]-2-pyridyl]-3,4,6,7,8,9-hexahydropyrido[3,4-b]indolizin-1-one]",0.19
4,"Cc1cc(Nc2cc(-c3ccnc(N4CCc5c(cc6n5CCCC6)C4=O)c3CO)cn(C)c2=O)nn1C [Example 242, 2-[4-[5-[(1,5-dimethylpyrazol-3-yl)amino]-1-methyl-6-oxo-3-pyridyl]-3-(hydroxymethyl)-2-pyridyl]-3,4,6,7,8,9-hexahydropyrido[3,4-b]indolizin-1-one]",1.2
5,"Cn1cc(-c2ccnc(N3CCn4c(cc5c4CCCC5)C3=O)c2CO)cc(Nc2cn(C3CCN(C4COC4)CC3)cn2)c1=O [Example 243, 2-[3-(hydroxymethyl)-4-[1-methyl-5-[[1-[1-(oxetan-3-yl)-4-piperidyl]imidazol-4-yl]amino]-6-oxo-3-pyridyl]-2-pyridyl]-3,4,6,7,8,9-hexahydropyrazino[1,2-a]indol-1-one]",2.8
6,"CN1CC(c2ccc(Nc3cc(-c4ccnc(N5CCc6c(cc7n6CCCC7)C5=O)c4CO)cn(C)c3=O)nc2)C1 [Example 244, 2-[3-(hydroxymethyl)-4-[1-methyl-5-[[5-(1-methylazetidin-3-yl)-2-pyridyl]amino]-6-oxo-3-pyridyl]-2-pyridyl]-3,4,6,7,8,9-hexahydropyrido[3,4-b]indolizin-1-one]",0.138
7,"C[C@H]1CN(C2COC2)CCN1c1ccc(Nc2cc(-c3ccnc(-n4ccc5c(cc6n5CCCC6)c4=O)c3CO)cn(C)c2=O)nc1 [Example 245, (S)-2-(3-(Hydroxymethyl)-4-(1-methyl-5-(5-(2-methyl-4-(oxetan-3-yl)piperazin-1-yl)pyridin-2-ylamino)-6-oxo-1,6-dihydropyridin-3-yl)pyridin-2-yl)-6,7,8,9-tetrahydropyrido[3,4-b]indolizin-1(2H)-one]",0.065
8,"Cc1cc(Nc2cc(-c3ccnc(-n4ccc5c(cc6n5CCCC6)c4=O)c3CO)cn(C)c2=O)nn1C [Example 246, 2-[4-[5-[(1,5-dimethylpyrazol-3-yl)amino]-1-methyl-6-oxo-3-pyridyl]-3-(hydroxymethyl)-2-pyridyl]-6,7,8,9-tetrahydropyrido[3,4-b]indolizin-1-one]",1.7
9,"CC(=O)N1CCn2nc(Nc3cc(-c4ccnc(-n5ncc6c7c(sc6c5=O)CCCC7)c4CO)cn(C)c3=O)cc2C1 [Example 247, 3-[4-[5-[(5-acetyl-6,7-dihydro-4H-pyrazolo[1,5-a]pyrazin-2-yl)amino]-1-methyl-6-oxo-3-pyridyl]-3-(hydroxymethyl)-2-pyridyl]-6,7,8,9-tetrahydrobenzothiopheno[2,3-d]pyridazin-4-one]",0.145
10,"C[C@@H]1COCCN1C(=O)c1ccc(Nc2cc(-c3ccnc(N4CCn5c(cc6c5CC(C)(C)C6)C4=O)c3CO)nn(C)c2=O)nc1 [Example 248, 3-[3-(hydroxymethyl)-4-[1-methyl-5-[[5-[(3R)-3-methylmorpholine-4-carbonyl]-2-pyridyl]amino]-6-oxo-pyridazin-3-yl]-2-pyridyl]-7,7-dimethyl-1,2,6,8-tetrahydrocyclopenta[3,4]pyrrolo[3,5-b]pyrazin-4-one]",0.0703
11,"C[C@@H]1COCCN1C(=O)c1ccc(Nc2cc(-c3ccnc(N4CCn5c(cc6c5CC(C)(C)C6)C4=O)c3CO)cn(C)c2=O)nc1 [Example 249, 3-[3-(hydroxymethyl)-4-[1-methyl-5-[[5-[(3R)-3-methylmorpholine-4-carbonyl]-2-pyridyl]amino]-6-oxo-3-pyridyl]-2-pyridyl]-7,7-dimethyl-1,2,6,8-tetrahydrocyclopenta[3,4]pyrrolo[3,5-b]pyrazin-4-one]",0.0177
12,"CC1Cn2nc(Nc3cc(-c4ccnc(N5CCn6c(cc7c6CCCC7)C5=O)c4CO)cn(C)c3=O)cc2CN1C (centres unmarked) [Example 250, 2-[4-[5-[(5,6-dimethyl-6,7-dihydro-4H-pyrazolo[1,5-a]pyrazin-2-yl)amino]-1-methyl-6-oxo-3-pyridyl]-3-(hydroxymethyl)-2-pyridyl]-3,4,6,7,8,9-hexahydropyrazino[1,2-a]indol-1-one]",0.171
13,"CCn1nc(Nc2cc(-c3ccnc(N4CCn5c(cc6c5CC(C)(C)C6)C4=O)c3CO)cn(C)c2=O)cc1C [Example 252, 3-[4-[5-[(1-ethyl-5-methyl-pyrazol-3-yl)amino]-1-methyl-6-oxo-3-pyridyl]-3-(hydroxymethyl)-2-pyridyl]-7,7-dimethyl-1,2,6,8-tetrahydrocyclopenta[3,4]pyrrolo[3,5-b]pyrazin-4-one]",0.252
14,"C[C@H]1CN(C2COC2)CCN1c1ccc(Nc2cc(-c3ccnc(N4CCn5c(cc6c5CC(C)(C)C6)C4=O)c3CO)n[nH]c2=O)nc1 [Example 253, 3-[3-(hydroxymethyl)-4-[5-[[5-[(2S)-2-methyl-4-(oxetan-3-yl)piperazin-1-yl]-2-pyridyl]amino]-6-oxo-1H-pyridazin-3-yl]-2-pyridyl]-7,7-dimethyl-1,2,6,8-tetrahydrocyclopenta[3,4]pyrrolo[3,5-b]pyrazin-4-one]",0.0164
15,"CC(=O)N1CCn2nc(Nc3cc(-c4ccnc(N5CCc6c(sc7c6CC(C)(C)C7)C5=O)c4CO)cn(C)c3=O)cc2C1 [Example 254, 3-[4-[5-[(5-acetyl-6,7-dihydro-4H-pyrazolo[1,5-a]pyrazin-2-yl)amino]-1-methyl-6-oxo-3-pyridyl]-3-(hydroxymethyl)-2-pyridyl]-7,7-dimethyl-1,2,6,8-tetrahydrocyclopenta[3,4]thieno[1,3-c]pyridin-4-one]",0.0373
16,"CC(=O)N1CCn2nc(Nc3cc(-c4ccnc(N5CCn6c7c(c(F)c6C5=O)CCCC7)c4CO)cn(C)c3=O)cc2C1 [Example 255, 2-[4-[5-[(5-acetyl-6,7-dihydro-4H-pyrazolo[1,5-a]pyrazin-2-yl)amino]-1-methyl-6-oxo-3-pyridyl]-3-(hydroxymethyl)-2-pyridyl]-10-fluoro-3,4,6,7,8,9-hexahydropyrazino[1,2-a]indol-1-one]",0.094
17,"C[C@H]1COCCN1C(=O)c1ccc(Nc2cc(-c3ccnc(N4CCn5c(cc6c5CC(C)(C)C6)C4=O)c3CO)nn(C)c2=O)nc1 [Example 256, 3-[3-(hydroxymethyl)-4-[1-methyl-5-[[5-[(3 S)-3-methylmorpholine-4-carbonyl]-2-pyridyl]amino]-6-oxo-pyridazin-3-yl]-2-pyridyl]-7,7-dimethyl-1,2,6,8-tetrahydrocyclopenta[3,4]pyrrolo[3,5-b]pyrazin-4-one]",0.08
